Laboratory results from the supplement of paper PMC10307832.

Key:
Selisistat + AZD7762 = compound: C1CC(C2=C(C1)C3=C(N2)C=CC(=C3)Cl)C(=O)N [Selisistat] + NC(=O)Nc1cc(-c2cccc(F)c2)sc1C(=O)N[C@H]1CCCNC1 [AZD7762] (partner 0.2 µM); test: relative viability (nuclei count vs DMSO), 5 days (fraction); higher = more cells survive
Method in brief: (§1)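 Nuclei were stained with Hoechst during a one-step fixation (final 0.05% Triton X-100, 1% formaldehyde, 1 ug/ml Hoechst) carried out 5 days after dosing, then counted on 4× images. The cells, lung cancer lines in 1536-well plates, had been dosed by pin tool the day after seeding with one drug alone or a fixed anchor-drug dose plus five library-drug doses (not always all listed) in √10 steps. Relative viability is the nuclei count in treated wells divided by that in vehicle wells, and each value is the median of duplicate plates.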

Selisistat + Vorinostat = compound: C1CC(C2=C(C1)C3=C(N2)C=CC(=C3)Cl)C(=O)N [Selisistat] + O=C(CCCCCCC(=O)Nc1ccccc1)NO [Vorinostat] (partner 1 µM); test: as above
Method in brief: as §1

Cell Line	relative viability (Selisistat + AZD7762; first compound 0.4 µM)	relative viability (Selisistat + AZD7762; first compound 1.265 µM)	relative viability (Selisistat + AZD7762; first compound 4 µM)	relative viability (Selisistat + AZD7762; first compound 12.65 µM)	relative viability (Selisistat + AZD7762; first compound 40 µM)	relative viability (Selisistat + Vorinostat; first compound 0.4 µM)	relative viability (Selisistat + Vorinostat; first compound 1.265 µM)	relative viability (Selisistat + Vorinostat; first compound 4 µM)	relative viability (Selisistat + Vorinostat; first compound 12.65 µM)	relative viability (Selisistat + Vorinostat; first compound 40 µM)
201T	0.644	0.623	0.7	0.602	0.659	1.07	0.98	0.85	1	0.995
A-427	0.742	0.785		0.725	0.757	0.905	0.934		0.881	0.875
ABC-1	0.791	0.778		0.829	1.08	1.38	1.28		1.09	1.19
BEN	0.74	0.535	0.471	0.71	0.649	0.625	0.663	0.545	0.636	0.657
CAL-12T	0.589	0.626	0.566	0.605	0.732	0.66	0.727	1.05	0.766	0.768
COR-L23						0.499	0.49	0.577	0.515	0.573
COR-L 105						0.892	0.846	0.876	0.964	1.21
ChaGo-K-1	0.787	0.828	0.883	0.838	0.8	0.72	0.728	0.73	0.729	0.842
EKVX	0.682	0.732	0.705	0.699	0.802	0.708	0.757		0.903	0.655
EMC-BAC-2	1.08	1.11	1.07	0.661	0.598	0.487	0.515	0.0984	0.12	0.12
EPLC-272H	0.236	0.215		0.318	0.336	0.453	0.729	0.52	0.529	0.693
H3255	0.898	0.861	0.733	0.895	0.806	0.885	0.93	0.822	0.834	0.872
HARA	0.237	0.342		0.364	0.219	0.436	0.552	0.529	0.756	0.85
HCC-15	1.34	1.23	1.16	1.3	1.55	0.912	0.931	0.875	0.878	1.07
HCC-44	1	1.04	1.1	1.02	1.15	1.08	1.09	1.21	1.24	1.24
HCC-78	0.626	0.669	0.431	0.683	0.502	0.495	0.467	0.437	0.428	0.6
HCC-366	0.315	0.225	0.257	0.186	0.166	0.464	0.434	0.57	0.441	0.384
HCC-827	0.206	0.154	0.187	0.279	0.24	0.851	0.829	0.862	0.862	0.837
HOP-62	0.62	0.568	0.696	0.633	1.2	0.604	0.783	0.735	0.613	0.923
IA-LM						1.09			0.926	1.22
LC-2-ad	0.827	0.814	0.68	0.775	0.9	0.769	0.704	0.774	0.806	0.764
LCLC-97TM1	0.187	0.208		0.342	0.183	0.646	0.72		0.597	0.75
LCLC-103H	0.807	0.744	0.853	0.751	0.749	0.824	0.908	0.747	0.803	0.953
LK-2	0.434	0.265	0.323	0.296	0.434	0.396	0.308	0.376	0.339	0.365
LOU-NH91	0.751	0.755	0.775	0.723	0.841	0.962	0.919	0.824	0.835	0.959

Cell Line	relative viability (Selisistat + AZD7762; first compound 0.4 µM)	relative viability (Selisistat + AZD7762; first compound 1.265 µM)	relative viability (Selisistat + AZD7762; first compound 4 µM)	relative viability (Selisistat + AZD7762; first compound 12.65 µM)	relative viability (Selisistat + AZD7762; first compound 40 µM)	relative viability (Selisistat + Vorinostat; first compound 0.4 µM)	relative viability (Selisistat + Vorinostat; first compound 1.265 µM)	relative viability (Selisistat + Vorinostat; first compound 4 µM)	relative viability (Selisistat + Vorinostat; first compound 12.65 µM)	relative viability (Selisistat + Vorinostat; first compound 40 µM)
LU99A	0.372	0.256	0.392	0.436	0.338	0.514	0.5	0.6	0.51	0.558
LXF-289	1.12	1.14	0.936	1.03	1.1	0.78	0.83	0.753	0.799	0.961
NCI-H23	0.297	0.193		0.31	0.169	0.647	0.597		0.663	0.802
NCI-H322M	0.579	0.657		0.572	0.675	0.857	0.921		0.893	1.02
NCI-H358	0.532	0.589		0.518	0.639	0.766	0.636	0.686	0.778	0.8
NCI-H441	1.19	1.06	1.29	0.969	1.32	0.851	0.723	0.805	0.666	1
NCI-H460	0.617	0.488		0.571	0.697	0.691	0.772	0.808	0.723	0.807
NCI-H520						0.722	0.705	0.814	0.592	0.794
NCI-H522	0.63	0.672	0.622	0.9	1.01	0.908	0.868	0.835	0.919	1.13
NCI-H596	1.14	1.01	0.887	1.05	1.06	0.698	0.609	0.521	0.75	0.773
NCI-H647	0.465	0.433	0.345	0.432	0.553	0.567	0.604	0.777	0.639	0.766
NCI-H650	1.15	0.988	1	0.867	1.13	0.396	0.438	0.632	0.481	0.548
NCI-H661						0.824	0.77	0.829	0.727	0.66
NCI-H727	0.675	0.563	0.369	0.615	0.527	1.31	1.15	0.658	1.2	1.16
NCI-H838	0.933	0.91	0.958	0.971	1.03	0.721	0.806	0.81	0.764	0.773
NCI-H1355	0.774	0.753	0.717	0.819	0.814	0.686	0.696	0.704	0.719	0.798
NCI-H1395	0.377	0.393		0.394	0.4	0.827	0.671		0.536	0.702
NCI-H1437	1.17	1.12	0.918	0.99	1.01	0.875	0.837	0.886	0.876	0.74
NCI-H1648	0.736	0.64		0.731	0.768	0.289	0.446		0.596	0.39
NCI-H1650						0.578	0.533	0.704	0.726	0.67
NCI-H1651	0.426	0.491	0.462	0.521	0.523	0.625	0.672	0.552	0.638	0.622
NCI-H1666	0.841	0.83	0.806	0.895	0.96	1.09	1.13	1.11	1.13	1.17
NCI-H1703	0.116	0.114		0.139	0.136					
NCI-H1734	0.594	0.485	0.453	0.505	0.607	0.871	0.68	0.783	0.843	0.85
NCI-H1755	0.427	0.391	0.407	0.407	0.43	0.831	0.903	0.975	0.766	0.928

Cell Line	relative viability (Selisistat + AZD7762; first compound 0.4 µM)	relative viability (Selisistat + AZD7762; first compound 1.265 µM)	relative viability (Selisistat + AZD7762; first compound 4 µM)	relative viability (Selisistat + AZD7762; first compound 12.65 µM)	relative viability (Selisistat + AZD7762; first compound 40 µM)	relative viability (Selisistat + Vorinostat; first compound 0.4 µM)	relative viability (Selisistat + Vorinostat; first compound 1.265 µM)	relative viability (Selisistat + Vorinostat; first compound 4 µM)	relative viability (Selisistat + Vorinostat; first compound 12.65 µM)	relative viability (Selisistat + Vorinostat; first compound 40 µM)
NCI-H1792	0.654	0.577		0.512	0.713					
NCI-H1793	0.477	0.461		0.53	0.73	0.899	0.679		0.88	0.781
NCI-H1915	0.668	0.687	0.775	0.674	0.757	0.494	0.538	0.661	0.538	0.641
NCI-H1944	0.523	0.509	0.428	0.653	0.586	0.563	0.526	0.51	0.547	0.593
NCI-H1975	0.684	0.661	0.581	0.647	0.646	0.734	0.731	0.752	0.687	0.691
NCI-H1993	0.793	0.791		0.954	0.816	0.969	0.782		0.848	0.949
NCI-H2009						0.774	0.786	0.77	0.741	0.793
NCI-H2023						0.662	0.786	0.784	0.674	0.853
NCI-H2085	1.06	1.02	0.67	0.992	0.983	0.908	0.855	0.714	0.828	0.84
NCI-H2087	1.31	1.14		1.19	1.25	0.897	0.667		0.422	0.76
NCI-H2126	1.04	1.04	0.992	1.03	1.03	0.865	0.792	0.691	0.861	0.845
NCI-H2170	0.868	0.939	0.82	0.854	0.911	0.868	0.8	0.845	0.917	0.964
NCI-H2228						0.724	0.5	1	0.725	1.08
NCI-H2342	0.494	0.483	0.41	0.611	0.505	0.749	0.646	0.626	0.899	0.897
NCI-H2347	0.733	0.66		0.774	0.795	0.478	0.484		0.666	0.772
NCI-H2405	0.718	0.732		0.725	0.678	1.07	1.19		0.975	0.927
NCI-H3122	1.03	0.95		1.04	1	0.977	0.919		1.09	1.34
PC-3 [JPC-3]	0.834	0.861		0.744	0.695	0.899	0.979		0.748	0.691
PC-14	0.381	0.344	0.226	0.278	0.36	0.914	0.764	0.843	0.776	0.931
RERF-LC-KJ	0.932	0.765	0.823	0.898	0.877	0.665	0.759	0.731	0.763	0.708
SK-LU-1						0.747	0.792	1.02	0.821	0.927
SK-MES-1						1.13	1.15	1.01	1.1	1.18
SW 900	0.533	0.529	0.681	0.601	0.584	0.684	0.705	0.518	0.747	0.781
SW 1573						0.761	0.94		1.19	1.03
UMC-11						0.456	0.477	0.531	0.504	0.593
